One assay deals with ROCK2 (Homo sapiens (Human), UniProt O75116). As to the kind of experiment: ROCK assay (LABCHIP peptide phosphorylation), ROCK2. The assay is classed as biochemical. As to conditions: 5 μM ATP, 1.5 μM peptide substrate.
A further assay concerns the target ROCK1 (Homo sapiens (Human), UniProt Q13464). As to the kind of experiment: ROCK assay (LABCHIP peptide phosphorylation), ROCK1. Type of assay: biochemical.
[1] abbreviates: 5 μM ATP, 1.5 μM peptide substrate, read-out: ROCK1 IC50.

Read-outs that look alike come from different tables or passages of the source.

Chain of ROCK2 (O75116 whole entry, species assumed): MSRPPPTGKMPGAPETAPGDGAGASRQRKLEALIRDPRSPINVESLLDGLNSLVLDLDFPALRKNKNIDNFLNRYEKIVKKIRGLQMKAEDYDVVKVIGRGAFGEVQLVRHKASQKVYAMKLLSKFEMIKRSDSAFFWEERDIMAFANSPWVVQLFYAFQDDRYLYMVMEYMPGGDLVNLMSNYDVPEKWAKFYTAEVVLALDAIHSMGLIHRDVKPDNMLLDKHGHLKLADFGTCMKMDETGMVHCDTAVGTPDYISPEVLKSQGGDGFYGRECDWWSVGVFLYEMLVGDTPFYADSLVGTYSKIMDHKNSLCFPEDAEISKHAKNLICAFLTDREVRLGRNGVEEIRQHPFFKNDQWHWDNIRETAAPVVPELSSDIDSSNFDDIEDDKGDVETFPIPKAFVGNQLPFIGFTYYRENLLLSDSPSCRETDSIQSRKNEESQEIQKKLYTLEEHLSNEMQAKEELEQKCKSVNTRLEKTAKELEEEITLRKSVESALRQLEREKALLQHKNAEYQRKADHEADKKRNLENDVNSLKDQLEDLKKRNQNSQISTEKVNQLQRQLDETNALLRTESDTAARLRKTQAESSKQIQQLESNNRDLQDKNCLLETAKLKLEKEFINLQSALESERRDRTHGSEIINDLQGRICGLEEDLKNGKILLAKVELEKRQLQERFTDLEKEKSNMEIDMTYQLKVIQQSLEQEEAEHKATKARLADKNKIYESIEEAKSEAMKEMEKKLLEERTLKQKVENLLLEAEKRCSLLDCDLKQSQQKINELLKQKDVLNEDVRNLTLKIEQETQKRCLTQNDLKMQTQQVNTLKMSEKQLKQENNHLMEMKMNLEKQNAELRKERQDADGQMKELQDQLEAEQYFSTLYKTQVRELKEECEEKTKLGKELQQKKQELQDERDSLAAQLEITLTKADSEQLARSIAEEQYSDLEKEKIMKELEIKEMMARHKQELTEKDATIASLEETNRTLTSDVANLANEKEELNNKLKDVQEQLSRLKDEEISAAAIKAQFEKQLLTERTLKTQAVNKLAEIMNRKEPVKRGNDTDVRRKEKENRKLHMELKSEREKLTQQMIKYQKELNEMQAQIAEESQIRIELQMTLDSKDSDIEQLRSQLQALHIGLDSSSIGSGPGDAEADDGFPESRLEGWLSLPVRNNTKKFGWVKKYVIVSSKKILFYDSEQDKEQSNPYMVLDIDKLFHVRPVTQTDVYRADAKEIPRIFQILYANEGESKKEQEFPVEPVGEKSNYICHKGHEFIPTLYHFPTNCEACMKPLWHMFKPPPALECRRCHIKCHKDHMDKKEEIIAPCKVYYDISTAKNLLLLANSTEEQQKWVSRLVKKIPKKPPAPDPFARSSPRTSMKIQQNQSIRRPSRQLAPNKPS
Chain of ROCK1 (Q13464 whole entry, species assumed): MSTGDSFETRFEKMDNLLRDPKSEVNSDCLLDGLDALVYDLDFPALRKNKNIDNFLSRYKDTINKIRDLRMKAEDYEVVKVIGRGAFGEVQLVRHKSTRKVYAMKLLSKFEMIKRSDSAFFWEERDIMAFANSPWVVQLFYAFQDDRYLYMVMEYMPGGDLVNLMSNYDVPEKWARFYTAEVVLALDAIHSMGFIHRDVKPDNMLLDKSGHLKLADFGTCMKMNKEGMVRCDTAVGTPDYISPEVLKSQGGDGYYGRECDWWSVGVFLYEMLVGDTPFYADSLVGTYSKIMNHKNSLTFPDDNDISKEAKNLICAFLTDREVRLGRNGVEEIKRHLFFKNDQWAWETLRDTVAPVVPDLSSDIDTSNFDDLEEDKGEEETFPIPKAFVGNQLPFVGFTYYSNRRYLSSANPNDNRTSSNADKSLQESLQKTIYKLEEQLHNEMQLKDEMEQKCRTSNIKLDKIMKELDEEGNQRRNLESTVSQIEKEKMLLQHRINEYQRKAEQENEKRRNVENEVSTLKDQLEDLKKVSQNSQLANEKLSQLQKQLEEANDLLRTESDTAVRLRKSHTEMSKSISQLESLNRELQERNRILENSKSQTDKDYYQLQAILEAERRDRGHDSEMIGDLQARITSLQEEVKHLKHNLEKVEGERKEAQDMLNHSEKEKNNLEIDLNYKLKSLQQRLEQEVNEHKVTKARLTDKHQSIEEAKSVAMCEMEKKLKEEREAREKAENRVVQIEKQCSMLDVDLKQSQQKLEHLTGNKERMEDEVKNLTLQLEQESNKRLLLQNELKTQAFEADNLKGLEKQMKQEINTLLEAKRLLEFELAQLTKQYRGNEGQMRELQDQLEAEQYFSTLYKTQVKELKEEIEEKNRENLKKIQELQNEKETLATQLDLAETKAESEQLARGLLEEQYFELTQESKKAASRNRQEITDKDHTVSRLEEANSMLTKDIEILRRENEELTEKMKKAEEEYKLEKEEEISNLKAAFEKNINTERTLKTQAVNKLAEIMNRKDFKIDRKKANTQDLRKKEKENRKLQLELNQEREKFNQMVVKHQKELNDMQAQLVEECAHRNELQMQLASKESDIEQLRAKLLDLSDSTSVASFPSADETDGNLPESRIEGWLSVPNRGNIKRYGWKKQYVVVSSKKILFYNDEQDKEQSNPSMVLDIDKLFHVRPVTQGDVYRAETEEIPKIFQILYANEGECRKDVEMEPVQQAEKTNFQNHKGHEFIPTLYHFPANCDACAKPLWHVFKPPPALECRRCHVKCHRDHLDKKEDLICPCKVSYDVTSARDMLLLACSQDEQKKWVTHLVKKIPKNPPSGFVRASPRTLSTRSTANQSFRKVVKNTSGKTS

With `Cc1c(C(=O)Nc2ccc(-c3n[nH]c(=O)c4ccccc34)cc2)nnn1-c1ccccc1F` [Example 222, 1-(2-fluorophenyl)-5-methyl-N-[4-(4-oxo-3,4-dihydrophthalazin-1-yl)phenyl]-1H-1,2,3-triazole-4-carboxamide], the IC50 against ROCK2 and on ROCK1 (setting [1]) was 0.1 to 100 nM each time.
With `Cc1ccn2cc(C(=O)Nc3ccc(-c4n[nH]c(=O)c5ccccc45)cc3)nc2c1` [Example 126, 7-methyl-N-[4-(4-oxo-3,4-dihydrophthalazin-1-yl)phenyl]imidazo[1,2-a]pyridine-2-carboxamide], the IC50 on ROCK2 was 0.1 to 100 nM; on ROCK1 (setting [1]) it was 101 to 1000 nM.
The matching figures for `CN1CC(=O)c2c(C(=O)Nc3ccc(-c4n[nH]c(=O)c5ccccc45)cc3)coc2C1` [Example 111, 6-methyl-4-oxo-N-[4-(4-oxo-3,4-dihydrophthalazin-1-yl)phenyl]-4H,5H,6H,7H-furo[2,3-c]pyridine-3-carboxamide]: 101 to 1000 nM and 101 to 1000 nM.
The matching figures for `O=C(Cc1ccc(-c2n[nH]c(=O)c3ccccc23)cc1)N1CCCc2ccccc21` [Example 34, 4-{4-[2-oxo-2-(1,2,3,4-tetrahydroquinolin-1-yl)ethyl]phenyl}-1,2-dihydrophthalazin-1-one]: 101 to 1000 nM and 1000 to 50000 nM.
“N-[4-(4-oxo-3,4- dihydrophthalazin-1- yl)phenyl]-1-[3- ylmethyl]-1H-indazole- 3-carboxamide [Example 170]”: the IC50 at ROCK2 and on ROCK1 (setting [1]) was 0.1 to 100 nM in each case.
As for `O=C(Cc1ccc(-c2n[nH]c(=O)c3ccccc23)cc1)Nc1nccs1` [Example 28, 2-[4-(4-oxo-3,4-dihydrophthalazin-1-yl)phenyl]-N-(1,3-thiazol-2-yl)acetamide], the IC50 against ROCK2 lay within 101 to 1000 nM; at ROCK1 (setting [1]), 1000 to 50000 nM.
For the compound `CC1(C)CCc2[nH]cc(C(=O)Nc3ccc(-c4n[nH]c(=O)c5ccccc45)cc3)c2C1=O` [Example 97, 5,5-dimethyl-4-oxo-N-[4-(4-oxo-3,4-dihydrophthalazin-1-yl)phenyl]-4,5,6,7-tetrahydro-1H-indole-3-carboxamide], the IC50 on ROCK2 and at ROCK1 (setting [1]) was 101 to 1000 nM each time.
In the case of `CC(C)(O)COc1ccc2c(c1)N(C(=O)Cc1ccc(-c3c[nH]c(=O)c4ccccc34)cc1)CC2` [Example 288, 4-(4-(2-(6-(2-Hydroxy-2-methylpropoxy)indolin-1-yl)-2-oxoethyl)phenyl)isoquinolin-1(2H)-one], the IC50 against ROCK2 and at ROCK1 (setting [1]) was 0.1 to 100 nM throughout.
As to `Cc1c(C(=O)Nc2ccc(-c3n[nH]c(=O)c4ccccc34)cc2)cnn1-c1ccccc1` [Example 189, 5-methyl-N-[4-(4-oxo-3,4-dihydrophthalazin-1-yl)phenyl]-1-phenyl-1H-pyrazole-4-carboxamide], the IC50 on ROCK2 and at ROCK1 (setting [1]) was 0.1 to 100 nM in each case.
Turning to `CC(C)(O)CNC(=O)CCn1nc(C(=O)Nc2ccc(-c3n[nH]c(=O)c4ccccc34)cc2)c2ccccc21` [Example 336, 1-(3-((2-Hydroxy-2-methylpropyl)amino)-3-oxopropyl)-N-(4-(4-oxo-3,4-dihydrophthalazin-1-yl)phenyl)-1H-indazole-3-carboxamide], the IC50 at ROCK2 and on ROCK1 (setting [1]) was 0.1 to 100 nM each time.
Turning to `O=C(Nc1ccc(-c2n[nH]c(=O)c3ccccc23)cc1)c1cnn2cc(OCCN3CCCC3)ccc12` [Example 176, N-[4-(4-oxo-3,4-dihydrophthalazin-1-yl)phenyl]-6-[2-(pyrrolidin-1-yl)ethoxy]pyrazolo[1,5-a]pyridine-3-carboxamide], the IC50 at ROCK2 and on ROCK1 (setting [1]) was 0.1 to 100 nM each time.
With `O=C(Cc1ccc(-c2n[nH]c(=O)c3ccccc23)cc1)Nc1ccc2c(c1)OCCO2` [Example 24, N-(2,3-dihydro-1,4-benzodioxin-6-yl)-2-[4-(4-oxo-3,4-dihydrophthalazin-1-yl)phenyl]acetamide], the IC50 against ROCK2 was 0.1 to 100 nM; on ROCK1 (setting [1]), 101 to 1000 nM.
Take `CN1CCN(Cc2ccc3c(c2)CN(C(=O)Oc2ccc(-c4n[nH]c(=O)c5ccccc45)cc2)C3)CC1` [Example 72, 4-(4-Oxo-3,4-dihydrophthalazin-1-yl)phenyl 5-((4-methylpiperazin-1-yl)methyl)isoindoline-2-carboxylate]: the values for the IC50 against ROCK2 and against ROCK1 were 0.1 to 100 nM and 101 to 1000 nM, respectively.
As to `Cc1cc(NC(=O)c2cn(CC(C)(C)O)c3ccccc23)ccc1-c1n[nH]c(=O)c2ccccc12` [Example 302, 1-(2-hydroxy-2-methylpropyl)-N-[3-methyl-4-(4-oxo-3,4-dihydrophthalazin-1-yl)phenyl]-1H-indole-3-carboxamide], the 50% inhibitory concentration (IC50) on ROCK2 and at ROCK1 (setting [1]) was 0.1 to 100 nM in each case.
For the compound `COc1cc(-c2n[nH]c(=O)c3ccccc23)ccc1NC(=O)c1nn(CC(C)(C)O)c2ccccc12` [Example 357, 1-(2-Hydroxy-2-methylpropyl)-N-(2-methoxy-4-(4-oxo-3,4-dihydrophthalazin-1-yl)phenyl)-1H-indazole-3-carboxamide], the 50% inhibitory concentration (IC50) lay within 101 to 1000 nM on ROCK2 and 1000 to 50000 nM at ROCK1 (setting [1]).
With `COc1cccc2[nH]cc(C(=O)Nc3ccc(-c4n[nH]c(=O)c5ccccc45)cc3)c12` [Example 117, 4-methoxy-N-[4-(4-oxo-3,4-dihydrophthalazin-1-yl)phenyl]-1H-indole-3-carboxamide], the IC50 against ROCK2 and at ROCK1 (setting [1]) was 0.1 to 100 nM throughout.
`Cc1ccccc1-n1ncc(C(=O)Nc2ccc(-c3n[nH]c(=O)c4ccccc34)cc2)c1C` [Example 214, 5-methyl-1-(2-methylphenyl)-N-[4-(4-oxo-3,4-dihydrophthalazin-1-yl)phenyl]-1H-pyrazole-4-carboxamide]: the IC50 against ROCK2 and on ROCK1 (setting [1]) was 0.1 to 100 nM throughout.
Turning to `O=C(Nc1ccc(-c2n[nH]c(=O)c3ccccc23)cc1)c1cn2ccccc2n1` [Example 89, N-[4-(4-oxo-3,4-dihydrophthalazin-1-yl)phenyl]imidazo[1,2-a]pyridine-2-carboxamide], the 50% inhibitory concentration (IC50) against ROCK2 lay within 0.1 to 100 nM; at ROCK1 (setting [1]), 101 to 1000 nM.
Take `COc1ccc2c(C(=O)Nc3ccc(-c4n[nH]c(=O)c5ccccc45)cc3)cnn2c1` [Example 141, 6-methoxy-N-[4-(4-oxo-3,4-dihydrophthalazin-1-yl)phenyl]pyrazolo[1,5-a]pyridine-3-carboxamide]: the IC50 at ROCK2 and at ROCK1 (setting [1]) was 0.1 to 100 nM throughout.
On to `O=C(O)CCn1nc(C(=O)Nc2ccc(-c3n[nH]c(=O)c4ccccc34)cc2)c2ccccc21` [Example 331, 3-(3-((4-(4-Pxo-3,4-dihydrophthalazin-1-yl)phenyl)carbamoyl)-1H-indazol-1-yl)propanoic acid], for which the 50% inhibitory concentration (IC50) was 0.1 to 100 nM at ROCK2 and 101 to 1000 nM on ROCK1 (setting [1]).
As to `COc1ccc2c(c1)N(C(=O)Nc1ccc(-c3c[nH]c(=O)c4ccc(OC)cc34)cc1)CC2` [Example 268, 6-Methoxy-N-(4-(6-methoxy-1-oxo-1,2-dihydroisoquinolin-4-yl)phenyl)indoline-1-carboxamide], the IC50 on ROCK2 and on ROCK1 (setting [1]) was 0.1 to 100 nM throughout.
On to `O=C(Nc1ccc(-c2n[nH]c(=O)c3ccccc23)cc1)c1nn(CC2CCCCO2)c2ccccc12` (stereo not drawn) [Example 168, 1-(oxan-2-ylmethyl)-N-[4-(4-oxo-3,4-dihydrophthalazin-1-yl)phenyl]-1H-indazole-3-carboxamide], for which the IC50 at ROCK2 and at ROCK1 (setting [1]) was 0.1 to 100 nM in each case.
As to `O=c1[nH]nc(-c2ccc(Nc3ncc(-c4ccccc4)o3)cc2)c2ccccc12` [Example 73, 4-(4-((5-Phenyloxazol-2-yl)amino)phenyl)phthalazin-1 (2H)-one], the IC50 lay within 0.1 to 100 nM against ROCK2 and 101 to 1000 nM at ROCK1 (setting [1]).
Take `Cn1nc(C(=O)Nc2ccc(-c3n[nH]c(=O)c4ccccc34)cc2)cc1C12CC3CC(CC(C3)C1)C2` [Example 201, 5-(adamantan-1-yl)-1-methyl-N-[4-(4-oxo-3,4-dihydrophthalazin-1-yl)phenyl]-1H-pyrazole-3-carboxamide]: the IC50 against ROCK2 and on ROCK1 (setting [1]) was 0.1 to 100 nM in each case.
With `O=C(Nc1ccc(-c2n[nH]c(=O)c3ccccc23)cc1)c1cnn2ccc(OCCN3CCCC3)cc12` [Example 183, N-[4-(4-oxo-3,4-dihydrophthalazin-1-yl)phenyl]-5-[2-(pyrrolidin-1-yl)ethoxy]pyrazolo[1,5-a]pyridine-3-carboxamide], the IC50 against ROCK2 and on ROCK1 (setting [1]) was 0.1 to 100 nM in each case.
Regarding `CCc1nc2ncccn2c1C(=O)Nc1ccc(-c2n[nH]c(=O)c3ccccc23)cc1` [Example 140, 2-ethyl-N-[4-(4-oxo-3,4-dihydrophthalazin-1-yl)phenyl]imidazo[1,2-a]pyrimidine-3-carboxamide], the IC50 against ROCK2 and on ROCK1 (setting [1]) was 0.1 to 100 nM each time.
With `O=C(Nc1ccc(-c2n[nH]c(=O)c3ccccc23)cc1)c1nn(CC2CCCO2)c2ccccc12` (stereo not drawn) [Example 148, N-[4-(4-oxo-3,4-dihydrophthalazin-1-yl)phenyl]-1-(oxolan-2-ylmethyl)-1H-indazole-3-carboxamide], the IC50 at ROCK2 and on ROCK1 (setting [1]) was 0.1 to 100 nM each time.
In the case of `CC(C(=O)N1CCc2ccccc21)c1ccc(-c2n[nH]c(=O)c3ccccc23)cc1` (stereo not drawn) [Example 42, 4-(4-(1-(Indolin-1-yl)-1-oxopropan-2-yl)phenyl)phthalazin-1(2H)-one], the values for the IC50 at ROCK2 and at ROCK1 (setting [1]) were 0.1 to 100 nM and 1000 to 50000 nM, respectively.
For the compound `CC(C)(O)Cn1nc(C(=O)Nc2ccc(-c3n[nH]c(=O)c4ccccc34)cc2)c2ccc(F)cc21` [Example 158, 6-fluoro-1-(2-hydroxy-2-methylpropyl)-N-[4-(4-oxo-3,4-dihydrophthalazin-1-yl)phenyl]-1H-indazole-3-carboxamide], the IC50 at ROCK2 and at ROCK1 (setting [1]) was 0.1 to 100 nM throughout.
Turning to `CN(C)c1ccc2cc(C(=O)Nc3ccc(-c4n[nH]c(=O)c5ccccc45)cc3)[nH]c2c1` [Example 94, 6-(dimethylamino)-N-[4-(4-oxo-3,4-dihydrophthalazin-1-yl)phenyl]-1H-indole-2-carboxamide], the IC50 on ROCK2 and at ROCK1 (setting [1]) was 0.1 to 100 nM throughout.

What is called IC50 is the midpoint of a concentration-inhibition curve.
